Test results: patent US12077503B2, “Substituted cyclic amides and their use as herbicides” (FMC CORPORATION, priority 2015, dated 2024)

Assays:
Assay type in all cases: in vivo
[1] = system: Galium (catchweed bedstraw, Galium aparine); assay: Test A postemergence; details: Galium, post-emergence, 240 h, Postemergence, read-out: Galium plant response rating (0 to 100 scale)
Method in brief: (§1)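 Visual injury, scored on a 0–100 scale relative to untreated controls, was recorded about 10 d after application. Treatments were a preemergence soil spray over planted seeds or a postemergence spray on plants at the one- to two-leaf stage, 2 to 10 cm tall, all in loam soil–sand blend in the greenhouse.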

[2] = system: Kochia (Kochia scoparia); assay: Test A postemergence; details: Bassia scoparia, post-emergence, 240 h, Postemergence, read-out: Kochia plant response rating (0 to 100 scale)
Method in brief: as §1

[3] = system: giant foxtail (Setaria faberii); assay: Test A postemergence; details: Setaria faberi, post-emergence, 240 h, Postemergence, read-out: Foxtail, Giant plant response rating (0 to 100 scale)
Method in brief: as §1

[4] = system: ragweed (common ragweed, Ambrosia elatior); assay: Test A postemergence; details: Ambrosia artemisiifolia, post-emergence, 240 h, Postemergence, read-out: Ragweed plant response rating (0 to 100 scale)
Method in brief: as §1

[5] = system: blackgrass (Alopecurus myosuroides); assay: Test A postemergence; details: Alopecurus myosuroides, post-emergence, 240 h, Postemergence, read-out: Blackgrass plant response rating (0 to 100 scale)
Method in brief: as §1

[6] = system: corn (Zea mays); assay: Test A postemergence; details: Zea mays, post-emergence, 240 h, Postemergence, read-out: Corn plant response rating (0 to 100 scale)
Method in brief: as §1

[7] = system: barnyardgrass (Echinochloa crus-galli); assay: Test A postemergence; details: Echinochloa crus-galli, post-emergence, 240 h, Postemergence
Method in brief: as §1

[8] = system: wheat (Triticum aestivum); assay: Test A postemergence; details: Triticum aestivum, post-emergence, 240 h, Postemergence, read-out: Wheat plant response rating (0 to 100 scale)
Method in brief: as §1

[9] = system: ryegrass, Italian (Italian ryegrass, Lolium multiflorum); assay: Test A postemergence; details: Lolium multiflorum, post-emergence, 240 h, Postemergence, read-out: Ryegrass, Italian plant response rating (0 to 100 scale)
Method in brief: as §1

[10] = system: pigweed (Amaranthus retroflexus); assay: Test A postemergence; details: Amaranthus retroflexus, post-emergence, 240 h, Postemergence, read-out: Pigweed plant response rating (0 to 100 scale)
Method in brief: as §1

[11] = system: sedge, umbrella (small-flower umbrella sedge, Cyperus difformis); assay: Test B flooded paddy test; details: Cyperus difformis, 360 h, Flood, 250 g ai/ha; visually evaluated after 13 to 15 d; read-out: Plant response rating, Sedge, Umbrella (0 to 100 scale where 0 is no effect and 100 is complete control)
Method in brief: (§2)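 Response scored visually against untreated controls, 0 = no effect and 100 = complete control, 13–15 d after treatment in the greenhouse. Compounds added to paddy water held 3 cm above soil surface. Treatment given at 2-leaf stage.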

[12] = system: ducksalad (Heteranthera limosa); assay: Test B flooded paddy test; details: Heteranthera limosa, 360 h, Flood, 250 g ai/ha; visually evaluated after 13 to 15 d; read-out: Plant response rating, Ducksalad (0 to 100 scale where 0 is no effect and 100 is complete control)
Method in brief: as §2

[13] = system: barnyardgrass (Echinochloa crus-galli); assay: Test B flooded paddy test; details: Echinochloa crus-galli, 360 h, Flood, 250 g ai/ha; visually evaluated after 13 to 15 d; read-out: Plant response rating, Barnyardgrass (0 to 100 scale where 0 is no effect and 100 is complete control)
Method in brief: as §2

[14] = system: rice (Oryra sativa); assay: Test B flooded paddy test; details: Oryza sativa, 360 h, Flood, 250 g ai/ha; visually evaluated after 13 to 15 d; read-out: Plant response rating, Rice (0 to 100 scale where 0 is no effect and 100 is complete control)
Method in brief: as §2

[15] = system: Kochia (Kochia scoparia); assay: Test A preemergence; details: Bassia scoparia, pre-emergence, 240 h, Preemergence
Method in brief: as §1

[16] = system: giant foxtail (Setaria faberii); assay: Test A preemergence; details: Setaria faberi, pre-emergence, 240 h, Preemergence
Method in brief: as §1

[17] = system: ragweed (common ragweed, Ambrosia elatior); assay: Test A preemergence; details: Ambrosia artemisiifolia, pre-emergence, 240 h, Preemergence
Method in brief: as §1

[18] = system: barnyardgrass (Echinochloa crus-galli); assay: Test A preemergence; details: Echinochloa crus-galli, pre-emergence, 240 h, Preemergence
Method in brief: as §1

[19] = system: ryegrass, Italian (Italian ryegrass, Lolium multiflorum); assay: Test A preemergence; details: Lolium multiflorum, pre-emergence, 240 h, Preemergence
Method in brief: as §1

[20] = system: pigweed (Amaranthus retroflexus); assay: Test A preemergence; details: Amaranthus retroflexus, pre-emergence, 240 h, Preemergence
[21] = 125 g ai/ha, visual rating about 10 d after treatment
[22] = 31 g ai/ha, 0 is no effect, 100 is complete control

`CN1C[C@H](c2ccc3c(c2)OC(F)(F)O3)[C@@H](C(=O)Nc2cnccc2C(F)(F)F)C1=O` [Compound 1354] showed a pest or weed control at 125 g/ha [1, 21] of 40%, a pest or weed control at 31 g/ha [1, 22] of 20% and a pest or weed control at 125 g/ha [2, 21] of 20%. It also gave a pest or weed control at 31 g/ha [2, 22] of 0%, a pest or weed control at 125 g/ha [3, 21] of 60% and a pest or weed control at 31 g/ha [3, 22] of 0%. The pest or weed control at 125 g/ha [4, 21] was 0%, the pest or weed control at 31 g/ha [4, 22] was 0% and the pest or weed control at 125 g/ha [5, 21] was 0%. It also gave a pest or weed control at 31 g/ha [5, 22] of 0%, a plant injury at 125 g/ha [6, 21] of 0% and a plant injury at 31 g/ha [6, 22] of 0%. For the same compound, the pest or weed control at 125 g/ha ([7]; 125 g ai/ha, visual rating about 10 d after treatment, read-out: Barnyardgrass plant response rating (0 to 100 scale, 0 no effect, 100 complete control)) was 20%, the pest or weed control at 31 g/ha ([7]; 31 g ai/ha, 0 is no effect, 100 is complete control, read-out: Barnyardgrass plant response rating (0 to 100 scale)) was 0% and the plant injury at 125 g/ha [8, 21] was 0%. It also gave a plant injury at 31 g/ha [8, 22] of 0%, a pest or weed control at 125 g/ha [9, 21] of 0% and a pest or weed control at 31 g/ha [9, 22] of 0%. The pest or weed control at 125 g/ha [10, 21] was 0%, the pest or weed control at 31 g/ha [10, 22] was 0% and the pest or weed control at 250 g/ha [11] was 0%. For the same compound, the pest or weed control at 250 g/ha [12] was 0%, the pest or weed control at 250 g/ha [13] was 0% and the pest or weed control at 250 g/ha [14] was 0%. The pest or weed control at 31 g/ha ([15]; 31 g ai/ha, 0 to 100 scale where 0 is no effect and 100 is complete control, read-out: Kochia plant response rating) was 0%, the pest or weed control at 125 g/ha ([15]; 125 g ai/ha, 0 to 100 scale (0 no effect, 100 complete control), read-out: Plant response rating, Kochia) was 20% and the pest or weed control at 31 g/ha ([16]; 31 g ai/ha, 0 to 100 scale where 0 is no effect and 100 is complete control, read-out: Foxtail, Giant plant response rating) was 30%. The pest or weed control at 125 g/ha ([16]; 125 g ai/ha, 0 to 100 scale (0 no effect, 100 complete control), read-out: Plant response rating, Foxtail, Giant) was 100%, the pest or weed control at 31 g/ha ([17]; 31 g ai/ha, 0 to 100 scale where 0 is no effect and 100 is complete control, read-out: Ragweed plant response rating) was 20% and the pest or weed control at 125 g/ha ([17]; 125 g ai/ha, 0 to 100 scale (0 no effect, 100 complete control), read-out: Plant response rating, Ragweed) was 0%. The pest or weed control at 31 g/ha ([18]; 31 g ai/ha, 0 to 100 scale where 0 is no effect and 100 is complete control, read-out: Barnyardgrass plant response rating) was 0%, the pest or weed control at 125 g/ha ([18]; 125 g ai/ha, 0 to 100 scale (0 no effect, 100 complete control), read-out: Plant response rating, Barnyardgrass) was 80% and the pest or weed control at 31 g/ha ([19]; 31 g ai/ha, 0 to 100 scale where 0 is no effect and 100 is complete control, read-out: Ryegrass, Italian plant response rating) was 0%. For the same compound, the pest or weed control at 125 g/ha ([19]; 125 g ai/ha, 0 to 100 scale (0 no effect, 100 complete control), read-out: Plant response rating, Ryegrass, Italian) was 20%, the pest or weed control at 31 g/ha ([20]; 31 g ai/ha, 0 to 100 scale where 0 is no effect and 100 is complete control, read-out: Pigweed plant response rating) was 0% and the pest or weed control at 125 g/ha ([20]; 125 g ai/ha, 0 to 100 scale (0 no effect, 100 complete control), read-out: Plant response rating, Pigweed) was 20%.
